Test results: article PMC8537068, “Do Lipids Influence Gastrointestinal Processing: A Case Study of Major Soybean Allergen Gly m 4” (Membranes, 2021)

Legend:
pepsin = biological target: T1, pepsin (Sus scrofa, UniProt P00791); assay: TNS displacement fluorescence; assay type: binding; settings: 4 µM protein, 4 µM TNS, 4 µM lipid; 0.05 M HCl pH 2.0, 25 °C
T1 construct: gene PGA; commercial native porcine pepsin (Sigma-Aldrich), mature enzyme without propeptide

Gly m 4 = biological target: T2, Gly m 4 (Glycine max, UniProt P26987); assay: TNS displacement fluorescence; assay type: binding; settings: 4 µM protein, 4 µM TNS, 4 µM lipid; 0.01 M phosphate pH 7.4, 25 °C
T2 construct: gene PR-10
T2 sequence (P26987 1-158): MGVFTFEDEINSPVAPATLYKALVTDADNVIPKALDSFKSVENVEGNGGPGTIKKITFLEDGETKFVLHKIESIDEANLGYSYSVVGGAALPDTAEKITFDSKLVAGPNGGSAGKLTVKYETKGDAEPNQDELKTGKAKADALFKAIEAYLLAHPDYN

T1 sequence (P00791 60-385): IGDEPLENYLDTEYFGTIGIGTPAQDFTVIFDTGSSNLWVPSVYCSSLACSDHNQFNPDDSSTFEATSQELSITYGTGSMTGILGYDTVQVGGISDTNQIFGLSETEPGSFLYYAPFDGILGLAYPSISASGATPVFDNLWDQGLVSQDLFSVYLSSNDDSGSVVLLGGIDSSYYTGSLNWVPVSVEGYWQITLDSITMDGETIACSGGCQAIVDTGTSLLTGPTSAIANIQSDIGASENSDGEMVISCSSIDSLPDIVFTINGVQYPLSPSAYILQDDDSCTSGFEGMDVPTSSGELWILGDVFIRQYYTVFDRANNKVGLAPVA

Structure (SMILES): CCCCCCCCCCCCCCCC(=O)OC[C@@H](O)COP(=O)(O)OCC(O)CO (some centres unmarked) [LPPG, 1-palmitoyl-2-hydroxy-sn-glycero-3-phosphoglycerol]
- % of control TNS fluorescence (pepsin): pepsin bound to the tested FAs and LPPG with an equal efficiency
- % of control TNS fluorescence (Gly m 4): 26%

Structure (SMILES): CCCCCCCC/C=C\CCCCCCCC(=O)O [OLE, oleic acid]
- % of control TNS fluorescence (pepsin): pepsin bound to the tested FAs and LPPG with an equal efficiency
- % of control TNS fluorescence (Gly m 4): 12%

Structure (SMILES): CCCCCCCCCCCCCCCCCC(=O)O [STE, stearic acid]
- % of control TNS fluorescence (pepsin): pepsin bound to the tested FAs and LPPG with an equal efficiency
